Tested on: soluble collagen and insoluble collagen of abdominal skin
Assay: Oral administration test in rats: L-hydroxyproline in soluble and insoluble collagen of abdominal skin (Experimental Example 2)
Assay type: in vivo, F344/DuCrlCrlj rats
Details: oral 10 mL/kg once a day for 12 days, abdominal skin on 13th day, soluble plus insoluble collagen, mean±standard deviation, 4 rats per group
Description: To the rats of the administration groups 7-11 were each administered with compositions 7-11 obtained by dissolving collagen peptide and L-hydroxyproline in purified water to the contents shown in Table 3 at 10 mL/kg. The rats of the control administration group 12 were administered with purified water at 10 mL/kg.
On the 13th day from the start of the administration test, the abdomen was shaved under anesthesia by intraperitoneal administration of pentobarbital, and the abdominal skin was collected. […] The values are shown by mean±standard deviation.

`O=C(O)[C@@H]1C[C@@H](O)CN1` [composition 11, trans-4-hydroxy-L-proline] was tested, and the “L-hydroxyproline amount/wet weight of skin” value was 10.66 ± 1.69 mg/g.
